According to US20230390409A1, “FAP-ACTIVATED SERUM EXTENDED HALF-LIFE THERAPEUTIC CONJUGATES” (Avacta Life Sciences Limited, priority 2020, published 2023):

Columns and labels:
mouse tumor model = assay: EC50 / maximum tolerated dose studies, mice; assay type: in vivo
Protocol: (§1) Half-maximal effective concentration (EC50) studies were undertaken to examine the difference between mice and rats administered talabostat alone (FIG. 4A) and mice and rats administered the therapeutic conjugates comprising talabostat (FIG. 4B). When talabostat is administered alone, the talabostat maximum tolerated dose (MTD) is about 3 mg/m^2 in a mouse tumor model and 0.18 mg/m^2 in rats. That is, the talabostat MTD is 1/17 the tumor model EC50 (FIG. 4A). In contrast, when the talabostat is administered as part of the therapeutic conjugate, the MTD is 160 mg/m^2 in the mouse model and the EC50 for rats is greater than 500 mg/m^2 (FIG. 4B). Talabostat, as part of the therapeutic conjugate, can be administered to rats and mice at therapeutically effective doses.

rats = assay: EC50 / maximum tolerated dose studies, rats; assay type: in vivo, rat
Protocol: as §1

G-CSF [1] = settings: VbP alone, known; cited from earlier work
G-CSF [2] = assay: G-CSF serum cytokine response in nontumor-bearing BALB/c mice (ELISA); assay type: in vivo; settings: 200 μg/mouse intraperitoneal, six hours after dosing (FIG. 23)
Protocol: The FAP-activated prodrug G-CSF serum cytokine response in nontumor-bearing BALB/c mice was examined. Female BALB/c mice of 11-12 weeks of age were injected intraperitonially with vehicle (PBS), 42CQ-6501, or 42CQ-6501+MSA at 200 μg/mouse, in groups of 5 mice per treatment.
While cytokine recruitment is believed to play an important role in tumor immunity, its presence in the serum represents a systemic response, which can lead to unwanted adverse effects. […] 42CQ is an AFFIMER® polypeptide designed to bind to serum albumin (SEQ ID NO: 133). Consequently, the 42CQ-based conjugates (with 6501) were prepared with or without prebinding to MSA to determine whether there was an evident difference between the two formulations.
Six hours after dosing, blood was collected to measure G-CSF in the serum using a mouse G-CSF Quantikine ELISA kit.

CC(C)[C@H](N)C(=O)N1CCC[C@H]1B(O)O [Talabostat, Val-boroPro]
maximum tolerated dose (MTD) (mouse tumor model; mouse tumor model): about 3 mg/m^2
talabostat MTD relative to the tumor model EC50 (mouse tumor model; talabostat administered alone (FIG. 4A)): 1/17
maximum tolerated dose (MTD) (rats): 0.18 mg/m^2
serum G-CSF response (G-CSF [1]): large serum G-CSF response

B1: 42CQ-6501: 42CQ, an AFFIMER polypeptide binding serum albumin (SEQ ID NO: 133), conjugated with 6501 (conjugate)
chain: MIPRGLSEAKPATPEIQEIVDKVKPQLEEKTNETYGKLEAVQYKTQVLANFFQRRWPGSTNYYIKVRAGDNKYMHLKVFNGPWKFRNTDRGADRVLTGYQVDKNKDDELTGFAAAGGRAEQKLISEEDLGCAENLYFQGGAAGHHHHHH
modifications: conjugated with 6501
serum concentration of G-CSF (G-CSF [2]): significant increase
